From patent US20100279942A1, “METHODS FOR TREATING MOTOR NEURON DISEASE” (priority 2004, published 2010)
Several values for one entry are separate records, joined by “and”; a condition that tells them apart may be missing. Equal values may be shown once. Entries after “also recorded” stand apart in the source; their conditions may differ. Ends that are not written are not given here.

Key:
[1] = test system: NSC34 cells transformed with SOD1 mutant (A4T-SOD1, G85R-SOD1, G93R-SOD1) genes; assay: Neuronal cell death test, Trypan blue exclusion assay, NSC34 cells transformed with SOD1 mutant genes; assay type: cell-based, mouse
Experimental: NSC34 cell, the hybrid cell of primary cultured, motor neuron-system embryonic mouse spinal cord cell with mouse neuroblastoma NTG18 cell, was cultured in […] medium containing 10% FBS and antibiotics (Cashman N R, et al., 1992, Dev Dyn 194: 209-221; and Durham H D, et al, 1993, Neurotoxicology 14: 387-395).
The NSC34 cells (7×10^4 cells/well, 6-well plate, 12 to 16-hour culture in DMEM (10% FBS) medium) were transformed with wild-type or SOD1 mutant (A4T, G85R, and G93R) genes by lipofection (0.5 μg of each SOD1 gene; 1 μl of LipofectAMINE; 2 μl of PLUS Reagent) under serum-free conditions for 3 hours and cultured for 21 hours in DMEM (10% FBS) and after 48 hours in DMED supplemented with N2 supplement (Invitrogen). After 72 hours of the transformation, cell mortality was measured by Trypan blue exclusion assay in the same way as above.
F11 or NSC34 cells were transformed with pEF-BOS, A4T-SOD1, G85R-SOD1, or G93R-SOD1 cDNA in the presence of increasing concentrations (10 aM, 1 fM, 100 fM, 10 pM, 1 nM, and 100 nM) of ADNF. After 72 hours, cell mortality was measured by Trypan blue exclusion assay.

SOD1 proteins = assay: Immunoblot analysis of SOD1 protein expression in transformed cells; assay type: cell-based, mouse and rat/mouse hybrid; settings: ADNF treatment; F11 and NSC34 cells
Experimental: Immunoblot analysis was conducted according to the previous report (Hashimoto Y, et al., supra, p. 6336-6341). To examine the protein expression of wild-type or SOD1 mutant genes, lysates from the cells transfected with each SOD1 gene were subjected to SDS-PAGE (20 μg/lane). After electrical blotting to a PVDF membrane, the membrane was blocked by a typical method and reacted with an anti-SOD1 antibody and then with a 1:5000-diluted horseradish peroxidase-conjugated anti-mouse IgG antibody (Bio-Rad Lab. Hercules, Calif., USA). The antibody-reactive bands were detected by ECL (Amersham Pharmacia Biotech, Uppsala, Sweden).

[2] = test system: neuronal cell death caused by amyloid β; settings: cited from earlier work
G93A-SOD1 Tg mice = assay: Motor performance (rotarod), disease onset and survival in G93A-SOD1 Tg mice; assay type: in vivo, mouse
Description: Transgenic (Tg) mice (hereinafter, referred to as “G93A-SOD1 Tg mice”) expressing human FALS-associated SOD1 mutant gene with a mutation (G93A) from Gly to Ala at 93 position are the best-established mouse model of ALS (Gurney M E, et al., 1994, Science 264: 1772-1775; and Gurney M E, et al., 1997, J Neurol Sci 152 Suppl 1: S67-73). The G93A-SOD1 Tg mice manifest symptoms quite similar to human ALS after normal birth and rapidly result in death in all cases. The G93A-SOD1 Tg mice, which have the onset of the regression of motor neurons similar clinically and pathologically to that in human ALS, have been known so far to be the most excellent model of ALS throughout the world and employed for identifying effective candidate agents for ALS patients.
The model mice were used to confirm the in vivo effect of ADNF on neurotoxicity induced by G93A-SOD1.
The G93A-SOD 1 Tg mice were purchased from Jackson Laboratories (Bar Harbor, Me.). The G93A-SOD1 Tg mice were kept as hemizygote mice by the mating thereof with C57BL/6J mice (CLEA Japan, Inc). The mice were raised in a SPF room (specific pathogen-free animal facility; 23±1° C., 55±5% humidity) in the 12-hour light/[…] (7:00 AM-7:00 PM). The mice were freely fed with gamma ray-irradiated Picolab Rodent Diet 20 (PMI Feeds Inc. St. Louis, Mo.) and sodium hyposulfite (5 ppm)-containing aseptic deionized distilled water.
The G93A-SOD1 Tg mice at 10 weeks of age were put under anesthesia by the intraperitoneal injection of 10% sodium pentobarbital (60 mg/kg). A hole was made on the cranial bone with a drill on the operating table of a stereotactic instrument to aseptically transplant the C315GS-4 cannula system for mouse (Plastics One Inc., Roanoke, Va.) to the mouse left cerebral ventricle. The cannula was fixed with a surgical adhesive and dental cement. The mice at 80 days of age were divided at random to a saline (control)-administered group (n=8) and an ADNF-administered group (n=11), and 3 μl of saline and 3 μl of 30 nmol ADNF were intracerebroventricularly (icv) injected each day to the former and the latter groups, respectively, until the end of the experiment. The injection was performed with the cannula in C3151S-4 connected to Hamilton syringe through a cannula tube (C232, PE50/Thin wall, Plastic One).
The motor function (motor performance) was evaluated weekly with a rotarod (CLEA Japan Inc). After the cannulation, the mice were acclimated to the rotarod for 2 days. The mice were placed onto a rotating rod moving at 5 rpm, and the time for which each mouse could remain on the rod was automatically detected. The test was conducted according to the protocol wherein the test was completed as a score of 7 minutes if the mouse remained on the rod for 7 minutes (Li M, et al., 2000, Science 288: 335-339; and Kaspar B K, et al., 2003, Science 301: 839-842). Disease onset was defined as the first day when the mouse could not remain on the rotarod for 7 minutes.
Death was defined when the mouse was unable to right itself within 30 seconds after being placed on its back (Li M, et al., supra).

Sequence: SALLRSIPA [ADNF, short peptide consisting of nine amino acid residues]
- inhibition of neuronal cell death caused by SOD1 mutant genes ([1]; 100 fM ADNF, three SOD1 mutant genes, 72 hours): can completely inhibit neuronal cell death
- inhibitory effect on neuronal cell death at high concentration ([1]; ADNF at concentrations equal to or above 10 nM): not decreased
- SOD1 gene expression levels (SOD1 proteins): not affected
- neuroprotective action at high concentration ([2]; ADNF at or above 10 nM, Brenneman et al.): lose its neuroprotective action
- inhibitory activity against cell death caused by amyloid β toxicity- or APP mutant gene-induced disorders ([2]; ADNF at or above nM levels, Hashimoto et al. 2001): reduced inhibitory activity
- disease onset versus saline-administered group (G93A-SOD1 Tg mice; 30 nmol ADNF icv each day): prone to be delayed; also recorded: no significant difference
- survival rate versus ALS control mice (G93A-SOD1 Tg mice; 30 nmol ADNF icv each day): no difference
- Survival days (G93A-SOD1 Tg mice; 30 nmol ADNF icv each day, n = 11): 155.3 ± 3.7 days and 155.3 ± 2.2 days
- Disease onset days (G93A-SOD1 Tg mice; 30 nmol ADNF icv each day, n = 11, onset = first day unable to remain on rotarod for 7 minutes): 127.3 ± 2.6 days
- motor performance (rotarod) versus control mice (G93A-SOD1 Tg mice; Week 16, 30 nmol ADNF icv each day from 80 days of age): significantly better than that of the control mice
- motor performance (rotarod) versus control mice (G93A-SOD1 Tg mice; Week 18 to Week 20, 30 nmol ADNF icv each day): this difference between the control mice and the ADNF-treated mice disappeared
